In patent EP4755885A1 (Shanghai Hansoh Biomedical Co., Ltd., priority 2023, dated 2025):

Experiments:
[1] = target: T1, human GLP-1 receptor (Homo sapiens, UniProt P43220); experiment: cAMP production in cell line stably transformed with human GLP1 receptor, 2 h co-incubation (HTRF); assay type: cell-based; settings: CHO-K1/GLP-1R/CRE-luc cells, stimulation for 2 h, read-out: EC50
T1 construct: expressed in transfected cells
Method: The purpose of this assay example is to test the ability of the compound to activate the human GLP-1 receptor on cell surface. The EC50 for stimulated cAMP production after activation characterizes the ability of the compound to activate the human GLP-1 receptor.
In this experiment, the compound and cells were co-incubated for 2 h.
Frozen cell line CHO-K1/GLP-1R/CRE-luc stably transformed with human GLP1 receptor was removed from a liquid nitrogen tank, and was placed in a 37°C water bath for rapid thawing. The cells were resuspended in DMEM/F12 medium, and after centrifugation, were washed once. The cells were resuspended in an experimental buffer, i.e., DMEM/F12 medium containing 0.1% casein. After centrifugation, cell density was adjusted using the experimental buffer. The cells were plated onto a 384-well plate at a density of 1500 cells/5 µL/well. Then, each well was added with 2.5 µL of IBMX working solution prepared with the buffer, the final concentration of IBMX being 0.5 mM, and 2.5 µL of a serially diluted compound sample (starting from […], 3-fold dilution, 12 concentrations). The plate was centrifuged at 1000 rpm for 1 min, and was stood for incubation at 37°C for 2 h. Determination was performed using the Cisbio cAMP - Gs Dynamic kit. cAMP-d2 and anti-cAMP-Eu3+-Cryptate were diluted 18-fold and 20-fold respectively with cAMP Lysis & Detection Buffer, and were respectively mixed homogeneously. Each well was added with 5 µL of diluted cAMP-d2 solution, and the plate was centrifuged at 1000 rpm for 1 min, and shaken for 30 seconds for homogeneous mixing. Then, each well was added with 5 µL of diluted anti-cAMP-Eu3+-Cryptate solution, and the plate was centrifuged at 1000 rpm for 1 min and was incubated in the dark at room temperature for 1 h. HTRF signals were read using the Biotek Synergy H1 microplate reader, the excitation wavelength being 320 nm and the emission wavelengths being 620 nm and 665 nm.
The signal-to-signal ratio was calculated (665 nm/620 nm * 10,000). Nonlinear fitting between the signal-to-signal ratio and the sample concentration was performed in GraphPad Prism 10 using a four-parameter equation to obtain the EC50 value.

[2] = Pharmacokinetic evaluation in beagles, oral administration; assay type: in vivo; settings: p.o. 2 mg/kg, plasma; for MRT inf: read-out: MRT 0-∞
Method: Beagles were used as test animals to study the pharmacokinetic behavior of the compound of the present invention, administered orally at a dose of 2 mg/kg, in beagles (plasma).
Beagles, 3 per group, male.
(§1) Preparation of drug for oral administration: 10%PEG400/10%PG/80% glycine buffer (100 mM glycine, 64 Mm NaOH, […]) buffer.
Single PK: The compound of the present invention was weighed into a 100 mL glass bottle, and the solution was added. The pH was first adjusted with 1 M NaOH until the compound dissolves to obtain a clear solution, and then the pH was readjusted to pH 9.0-9.5 with 1 M HCl. Sonication was performed for 10 min to obtain a colorless clear solution having a concentration of 0.4 mg/mL.
Three beagles, male, respectively administered p.o. after fasting overnight, at a dose of 2 mg/kg and in an administration volume of 5 mL/kg.
Blood collection: 0.3 mL of blood was collected from the forelimb vein of the beagles before administration and at 0.25, 0.5, 1, 2, 4, 6, 8, and 24 h after administration. The blood samples were placed in EDTA-K2 anticoagulant tubes and centrifuged at 6000 rpm at 4°C for 6 min to separate plasma, which was stored at -80°C. The beagles were fed 4 h after administration.
(§2) • 1) 40 µL of a plasma sample was added with 160 µL of acetonitrile for precipitation, and after mixing, the mixture was centrifuged at 3500 × g for 5 to 20 min. • 2) The supernatant solution after treatment was taken for LC/MS/MS analysis of the concentration of the test compound. The LC/MS/MS analysis instrument was AB Sciex API 4000 Qtrap.
• Liquid phase condition: Shimadzu LC-20AD pump • Chromatographic column: Agilent ZORBAX XDB-C18 (50×2.1 mm, 3.5 µm) Mobile phase: Solution A was 0.1% formic acid aqueous solution, and Solution B was acetonitrile • Flow rate: 0.4 mL/min • Elution time: 0-4.0 min, the eluent was as follows: […]

[3] = Pharmacokinetic evaluation in mice, oral administration; assay type: in vivo, Balb/c mice; settings: p.o. 5 mg/kg, plasma; for AUC(0-inf) / AUC(0-t) / Cmax / Tmax / MRT inf: mouse, in vivo, po; for MRT inf: read-out: MRT 0-∞
Method: Balb/c mice were used as test animals to study the pharmacokinetic behavior of the compound of the present invention in mice (plasma) at a dose of 5 mg/kg administered orally and 1 mg/kg administered intravenously.
Balb/c mice, 3 per group, male.
as §1
10 ml of PEG400, 10 ml of PG, and 80 ml of (100 mM glycine, 64 Mm NaOH, pH = 9) were measured into a 100 ml volumetric flask, vortexed, mixed homogeneously, and sonicated to obtain a clear solution.
Single PK: An example compound was weighed into a 4 mL glass bottle. The solution was added, and sonication was performed for 10 min to obtain a colorless clear solution having a concentration of 0.5 mg/mL.
The solution was added, and sonication was performed for 10 min to obtain a colorless clear solution having a concentration of 0.5 mg/mL.
Three Balb/c mice, male, respectively administered p.o. after fasting overnight, at a dose of 5 mg/kg and in an administration volume of 10 mL/kg.
The blood samples were placed in EDTA-K2 anticoagulant tubes and centrifuged at 6000 rpm at 4°C for 6 min to separate plasma, which was stored at -80°C. The mice were fed 4 h after administration.
as §2
• Liquid phase condition: Shimadzu LC-20AD pump • Chromatographic column: Agilent ZORBAX XDB-C18 (50×2.1 mm, 3.5 µm) Mobile phase: Solution A was 0.1% formic acid aqueous solution, and Solution B was acetonitrile • Flow rate: 0.4 mL/min • Elution time: 0-4.0 min, the eluent was as follows:
Main pharmacokinetic parameters were calculated using WinNonlin 6.1.

[4] = not marked single PK (cassette PK)

T1 sequence (P43220 24-463): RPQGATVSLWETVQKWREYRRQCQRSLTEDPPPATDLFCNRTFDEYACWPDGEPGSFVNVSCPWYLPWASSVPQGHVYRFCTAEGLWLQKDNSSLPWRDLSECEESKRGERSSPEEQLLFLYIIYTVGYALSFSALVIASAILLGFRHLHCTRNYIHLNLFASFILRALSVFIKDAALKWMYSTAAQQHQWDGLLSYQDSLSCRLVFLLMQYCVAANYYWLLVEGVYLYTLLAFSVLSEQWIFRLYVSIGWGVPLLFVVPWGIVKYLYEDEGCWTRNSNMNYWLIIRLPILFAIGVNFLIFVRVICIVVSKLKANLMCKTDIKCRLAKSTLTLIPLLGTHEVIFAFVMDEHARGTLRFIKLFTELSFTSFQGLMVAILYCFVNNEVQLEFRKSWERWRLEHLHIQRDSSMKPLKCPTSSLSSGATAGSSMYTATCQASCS

With “3-((3R,4r,5 S)-4-(5-((S)-2,2-dimethyltetrahydro-2H-pyran-4-yl)-2-((S)-3-(3-(4-fluoro-1-(methyl-d3)-1H-indazol-5-yl)-2-carbonyl-2,3-dihydro-1H-imidazol-1-yl)-2-(4-fluoro-3,5-dimethylbenzene)-4-methyl-4,5,6,7-tetrahydro-2H-pyrazolo[4,3-c]pyridine-5-carbonyl)-1H-indol-1-yl)tetrahydro-2H-pyran-4-yl)-1,2,4-oxadiazol-5(4H)-one [Example 338]” the EC50 [1] was 0.023 nM, the “AUC 0-∞” value [2] was 21417 ng·h/mL and the “AUC(0-t)” value [2] was 20922 ng·h/mL. The Cmax [2] was 3915 ng/mL, the “MRT 0-∞” value [2] was 5.3 h and the Tmax [2] was 1.3 h. For the same compound, the t1/2 [2] was 4.4 h.
For C[C@H]1c2c(nn(-c3ccc(F)c(C4CC4)c3)c2-n2ccn(-c3ccc4c(c3)C3(CC3)C(=O)N4C)c2=O)CCN1C(=O)c1cc2cc([C@H]3CCOC(C)(C)C3)ccc2n1[C@@]1(c2noc(=O)[nH]2)C[C@@H]1C [Example 32], the AUC(0-inf) [3, 4] was 9320 ng·h/mL, the AUC(0-t) [3, 4] was 8990 ng·h/mL and the Cmax [3, 4] was 1040 ng/mL. It also gave a Tmax [3, 4] of 1 h, an MRT inf [3, 4] of 6.7 h and a tl/2 [3, 4] of 5.3 h.
With Cc1cc(-n2nc3c(c2-n2ccn(-c4cc5c6c(c4)CCC(=O)N6CCC5)c2=O)[C@H](C)N(C(=O)c2cc4cc([C@H]5CCOC(C)(C)C5)ccc4n2[C@@]2(c4noc(=O)[nH]4)C[C@@H]2C)CC3)cc(C)c1F [Example 34] the AUC(0-inf) ([3]; single PK) was 13300 ng·h/mL, the AUC(0-t) ([3]; single PK) was 12100 ng·h/mL and the Cmax ([3]; single PK) was 1510 ng/mL. It also gave a Tmax ([3]; single PK) of 1 h, an MRT inf ([3]; single PK) of 9 h and a tl/2 ([3]; single PK) of 7.8 h. For the same compound, the EC50 [1] was 0.11 nM, the AUC(0-inf) ([2]; dog, po) was 9390 ng·h/mL and the AUC(0-t) at 24 h ([2]; dog, po) was 9090 ng·h/mL. The half-life ([2]; dog, po) was 5.1 h, the Cmax ([2]; dog, po, read-out: Cmax) was 1330 ng/mL and the MRT inf ([2]; dog, po) was 5.7 h. The Tmax ([2]; dog, po, read-out: tmax) was 1.7 h.
Compound Cc1cc(-n2nc3c(c2-n2ccn(-c4cc5c6c(c4)OCCN6C(=O)CC5)c2=O)[C@H](C)N(C(=O)c2cc4cc([C@H]5CCOC(C)(C)C5)ccc4n2[C@@]2(c4noc(=O)[nH]4)C[C@@H]2C)CC3)cc(C)c1F [Example 43] has an EC50 [1] of 0.06 nM.
Compound Cc1cc(-n2nc3c(c2-n2ccn(-c4ccc5c(cnn5C5CC5)c4F)c2=O)[C@H](C)N(C(=O)c2cc4cc([C@H]5CCOC(C)(C)C5)ccc4n2[C@@]2(c4noc(=O)[nH]4)C[C@@H]2C)CC3)cc(C)c1C#N [Example 49] has an AUC(0-inf) ([3]; single PK) of 16600 ng·h/mL, an AUC(0-t) ([3]; single PK) of 15700 ng·h/mL and a Cmax ([3]; single PK) of 2430 ng/mL. For the same compound, the Tmax ([3]; single PK) was 1 h, the MRT inf ([3]; single PK) was 7.1 h and the tl/2 ([3]; single PK) was 6.5 h. For the same compound, the EC50 [1] was 0.032 nM.
Work on Cc1cc(-n2nc3c(c2-n2ccn(-c4ccc5c(cnn5C5CC5)c4F)c2=O)[C@H](C)N(C(=O)c2cc4cc([C@H]5CCOC(C)(C)C5)ccc4n2[C@@]2(c4noc(=O)[nH]4)C[C@@H]2COC(F)F)CC3)cc(C)c1F [Example 68] yielded an EC50 [1] of 0.016 nM.
Compound C#C[C@H]1C[C@]1(c1noc(=O)[nH]1)n1c(C(=O)N2CCc3nn(-c4cc(C)c(F)c(C)c4)c(-n4ccn(-c5cc6c7c(c5)CCC(=O)N7CCC6)c4=O)c3[C@@H]2C)cc2cc([C@H]3CCOC(C)(C)C3)ccc21 [Example 174] has an EC50 [1] of 0.15 nM.
Cc1cc(-n2nc3c(c2-n2ccn(-c4ccc5c(cnn5C5CC5)c4F)c2=O)[C@H](C)N(C(=O)c2cc4cc([C@H]5CCOC(C)(C)C5)ccc4n2[C@@]2(c4noc(=O)[nH]4)C[C@@H]2COc2ccccc2)CC3)cc(C)c1F [Example 187] gave an EC50 [1] of 0.08 nM.
With Cc1cc(-n2nc3c(c2-n2ccn(-c4ccc5c(cnn5C5CC5)c4F)c2=O)[C@H](C)N(C(=O)c2cc4cc([C@H]5CCOC(C)(C)C5)ccc4n2[C@@]2(c4noc(=O)[nH]4)C[C@@H]2C#N)CC3)cc(C)c1F [Example 190] the EC50 [1] was 0.04 nM.
Work on [2H]C([2H])(OC1CC1)[C@H]1C[C@]1(c1noc(=O)[nH]1)n1c(C(=O)N2CCc3nn(-c4cc(C)c(F)c(C)c4)c(-n4ccn(-c5ccc6c(cnn6C6CC6)c5F)c4=O)c3[C@@H]2C)cc2cc([C@H]3CCOC(C)(C)C3)ccc21 [Example 194] yielded an AUC(0-inf) [3, 4] of 32200 ng·h/mL, an AUC(0-t) [3, 4] of 19100 ng·h/mL and a Cmax [3, 4] of 1840 ng/mL. It also gave a Tmax [3, 4] of 2.7 h, an MRT inf [3, 4] of 26.6 h and a tl/2 [3, 4] of 19.9 h. The EC50 [1] was 0.009 nM, the AUC(0-inf) ([2]; dog, po) was 43700 ng·h/mL and the AUC(0-t) at 24 h ([2]; dog, po) was 40100 ng·h/mL. The half-life ([2]; dog, po) was 7.6 h, the Cmax ([2]; dog, po, read-out: Cmax) was 5830 ng/mL and the MRT inf ([2]; dog, po) was 8.3 h. The Tmax ([2]; dog, po, read-out: tmax) was 1 h.
Work on Cc1cc(-n2nc3c(c2-n2ccn(-c4ccc5c(cnn5C5CC5)c4F)c2=O)[C@H](C)N(C(=O)c2cc4cc([C@H]5CCOC(C)(C)C5)ccc4n2[C@@]2(c4noc(=O)[nH]4)C[C@@H]2COC2CC2)CC3)cc(C)c1C#N [Example 195] yielded an EC50 [1] of 0.035 nM.
Work on Cc1cc(-n2nc3c(c2-n2ccn(-c4cc5c6c(c4)CCC(=O)N6CCC5)c2=O)[C@H](C)N(C(=O)c2cc4cc([C@H]5CCOC(C)(C)C5)ccc4n2[C@@]2(c4noc(=O)[nH]4)C[C@@H]2COC2CC2)CC3)cc(C)c1F [Example 200] yielded an EC50 [1] of 0.09 nM.
